Experimental findings from publication PMC12494099, “Discovery and Characterization of Novel IKZF1/3 Glue Degraders against Multiple Hematological Cancer Cell Lines” (Oncology Research, 2025) are described below.

Common to all, as to assay type: cell-based
One assay concerns KG-1. Put plainly: Cell viability (CCK-8) assay. As to conditions: Homo sapiens, KG-1; AML, 96 h; read-out: IC50 (μM) KG-1. An outline of the steps: (§1)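 First, 15,000 cells are plated per well. Compound is then added. Finally, viability is determined with CCK-8 reagent according to the supplier's instructions.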
The subject of the next assay is MOLM-13. Put plainly: Cell viability (CCK-8) assay. As to conditions: Homo sapiens, MOLM-13; AML, 96 h; read-out: IC50 (μM) MOLM-13. A digest of the protocol:
as §1

In the next assay the test system is MUTZ-1. Put plainly: Cell viability (CCK-8) assay. Conditions: AML, 96 h; read-out: IC50 (μM) MUTZ-1. An outline of the steps: as §1
Assay [1] deals with MV-4-11. The assay can be described thus: Cell viability (CCK-8) assay. As to conditions: for IC50: Homo sapiens, MV4-11, 96 h, 96 h, CCK-8. A digest of the protocol: as §1
In assay [2] the test system is NCI-H929. The assay can be described thus: Cell viability (CCK-8) assay. Conditions: Homo sapiens, NCI-H929, 96 h. A digest of the protocol: as §1
For the next assay, the system named is OPM-2. Put plainly: Cell viability (CCK-8) assay. Conditions: Homo sapiens, OPM-2; MM, 96 h; read-out: IC50 (μM) OPM-2. A digest of the protocol:
as §1

Another assay relates to Ocl-Ly3. The assay can be described thus: Cell viability (CCK-8) assay. As to conditions: for IC50: 96 h, CCK-8. A digest of the protocol:
as §1

Another assay has as its system RPMI-8226. The assay can be described thus: Cell viability (CCK-8) assay. As to conditions: Homo sapiens, RPMI-8226; MM, 96 h; read-out: IC50 (μM) RPMI-8226. A digest of the protocol: as §1
Another assay concerns SU-DHL-4. Put plainly: Cell viability (CCK-8) assay. As to conditions: Homo sapiens, SU-DHL-4; DLBCL, 96 h; read-out: IC50 (μM) SU-DHL-4. An outline of the steps:
as §1

Another assay relates to Skm-1. Put plainly: Cell viability (CCK-8) assay. Conditions: Homo sapiens, SKM-1; AML, 96 h; read-out: IC50 (μM) Skm-1. An outline of the steps: as §1
The test system of the next assay is TMD8. Put plainly: Cell viability (CCK-8) assay. As to conditions: Homo sapiens, TMD8; DLBCL, 96 h; read-out: IC50 (μM) TMD8. An outline of the steps:
as §1

The next assay deals with U2932. The assay can be described thus: Cell viability (CCK-8) assay. As to conditions: Homo sapiens, U2932; DLBCL, 96 h; read-out: IC50 (μM) U2932. A digest of the protocol: as §1
In another assay the test system is U937. The assay can be described thus: Cell viability (CCK-8) assay. As to conditions: Homo sapiens, U-937; AML, 96 h; read-out: IC50 (μM) U937. An outline of the steps:
as §1

In the next assay the test system is WSU-DLCL-2. The assay can be described thus: Cell viability (CCK-8) assay. As to conditions: Homo sapiens, WSUDLCL2; DLBCL, 96 h; read-out: IC50 (μM) WSU-DLCL-2. An outline of the steps: as §1
A further assay has as its system CRBN^−/− MV-4-11 cells. The assay can be described thus: Cell viability, CRBN knockout cells. As to conditions: Homo sapiens, MV4-11, 96 h. As for the experimental part: (§2) Multiple cell lines (NCI-H929, OPM-2, U937, Ocl-Ly3, RPMI-8226, MOLM-13, Skm-1, MUTZ-1, SU-DHL-4, TMD8, U2932, WSU-DLCL-2, MV-4-11 and KG-1 cells) were plated into 96-well plates. The plated at a density of 15,000 cells per well, and each well contained 100 µL of medium. Subsequently, different compounds (MGD-AX, MGD-BX, MGD-CX) were added to each well. These compounds’ concentrations were set at 0, 0.01, 0.033, 0.1, 0.33, 1, 3.3, 10 and 33 μM, and the cells were incubated with the compounds for 96 h. To evaluate the antiproliferative effects of these compounds, the Cell Counting Kit-8 (CCK-8, #CX007, Epizyme, Shanghai, China) was used. All procedures were carried out in strict accordance with the manufacturer’s instructions (Dojindo Laboratories, Mamoto Ken, Japan). The half maximal inhibitory concentrations (IC50) values, which represent the concentrations of the test compounds that can inhibit 50% of cell activity, were calculated using GraphPad Prism 8.0 (GraphPad Software Inc., San Diego, CA, USA).
(§3) […] NCI-H929 and MV-4-11 cells were seeded at a density of 1 × 10^6 cells/well in 6-well tissue culture-treated plates. According to the manufacturer’s protocol (Santa Cruz Biotechnology, Inc, Dallas, TX, USA), CRBN CRISPR/Cas9 knockout Plasmid (#sc-412142), CRBN HDR plasmid (#sc-412142-HDR), UltraCruz® Transfection Reagent (#sc-395739) were pre-mixed in Plasmid Transfection Medium (#sc-108062) at a 1:1:2 mass ratio, and cells were transiently transfected in a 37°C, 5% CO2 incubator. After 72 h of infection, the medium was replaced with complete medium containing 3 μg/mL puromycin for 5–7 days. On day 7, GFP-positive cells were sorted as single cells into 96-well plates. Isolated single-cell clones were screened via western blot analysis, using wild-type NCI-H929 or MV-4-11 cells as positive controls.

A further assay relates to CRBN^−/− NCI-H929 cells. The assay can be described thus: Cell viability, CRBN knockout cells. As to conditions: Homo sapiens, NCI-H929, 96 h. As for the experimental part: as §2, §3
Assay [3] has as its system MV-4-11. Put plainly: Cell apoptosis assay (Annexin V flow cytometry). As for the experimental part:
(§4) Cells (NCI-H929 and MV-4-11) were seeded at a density of 1 × 10^6 cells per well into 6-well dishes. […] Apoptosis was assessed using an Annexin V-FITC kit (#ab14085; Abcam, MA, USA) on a FACS Calibur Flow Cytometer (Becton Dickinson, Franklin Lakes, NJ, USA). For cell cycle analysis, cells were fixed in 75% ethanol (−20°C/overnight), washed with PBS (pH = 7.2–7.4, 1×), treated with RNase A (0.2 mg/mL, 37°C/30 min), stained with PI (10 μg/mL), and analyzed on the same instrument. Finally, the samples were analyzed using a FACS Calibur Flow Cytometer.

The test system of assay [4] is NCI-H929. Put plainly: Cell apoptosis assay (Annexin V flow cytometry). Conditions: NCI-H929, 1 and 10 µM. As for the experimental part: as §4

As for `CN1CCN(Cc2cccc(C(=O)NC3CCC(=O)NC3=O)c2)CC1` (stereo not shown) [MGD-A7, N-(2,6-dioxopiperidin-3-yl)-3-((4-methylpiperazin-1-yl)methyl)benzamide], the half-inhibitory concentration (IC50) was determined as 1.24 µM with KG-1; 19.3 µM in the assay on MOLM-13; 13.2 µM with MUTZ-1; 0.59 ± 0.07 µM in the assay on MV-4-11 [1]; 0.67 ± 0.1 µM in the assay on NCI-H929 [2]; 0.153 µM in the assay with OPM-2. For the same compound, the IC50 is 2.32 ± 0.22 µM with Ocl-Ly3; 2.11 µM in the assay on RPMI-8226; 10.3 µM in the assay on SU-DHL-4; 4.03 µM with Skm-1; 6.77 µM with TMD8; 3.34 µM with U2932. The half-maximal inhibitory concentration (IC50) in the assay on U937 was 3.83 µM; in the assay on WSU-DLCL-2, 3.82 µM; with CRBN^−/− MV-4-11 cells it was > 33000 nM; in the assay with CRBN^−/− NCI-H929 cells, > 33000 nM. Further, the apoptosis rate was found to be 22.5% with MV-4-11 [3] (MV-4-11, 1 µM) and 36.6% in the assay with MV-4-11 [3] (MV-4-11, 10 µM). Also, in the assay on NCI-H929 [4], the “apoptosis (in words)” value was “significantly induced apoptosis”.

With `CN1CCN(Cc2cccc(C(=O)NC3CCC(=O)NC3=O)c2F)C(=O)C1` (stereo not shown) [MGD-C9, N-(2,6-dioxopiperidin-3-yl)-2-fluoro-3-((4-methyl-2-oxopiperazin-1-yl)methyl)benzamide], the concentration for half-maximal inhibition (IC50) is 0.33 µM with KG-1; 9.11 µM in the assay with MOLM-13; 10.5 µM in the assay on MUTZ-1; 0.21 ± 0.02 µM in the assay on MV-4-11 [1]; 0.26 ± 0.03 µM with NCI-H929 [2]; 0.0845 µM with OPM-2. The IC50 worked out at 0.81 ± 0.09 µM in the assay with Ocl-Ly3; 1.23 µM with RPMI-8226; 7.37 µM with SU-DHL-4; 2.03 µM with Skm-1; 5.03 µM in the assay with TMD8; 1.25 µM with U2932. Also, the IC50 in the assay with U937 was 1.24 µM; in the assay on WSU-DLCL-2 it was 2.24 µM; in the assay on CRBN^−/− MV-4-11 cells, > 33000 nM; in the assay on CRBN^−/− NCI-H929 cells, > 33000 nM. Besides, the “fold higher antiproliferative activity than avadomide” value with MV-4-11 [1] (MV-4-11 cells) was “approximately 4 fold”. Further, in the assay with Ocl-Ly3 (Ocl-Ly3 cells), the “times stronger antiproliferative activity than avadomide” value was “approximately 20 times”. The apoptosis rate with MV-4-11 [3] (MV-4-11, 1 µM) was 26.0%; with MV-4-11 [3] (MV-4-11, 10 µM), 40.7%. The “apoptosis (in words)” value in the assay with NCI-H929 [4] is reported as “significantly induced apoptosis”.
